# Results from US20160362416A1, “ANTIVIRAL COMPOUNDS” (Gilead Sciences, Inc., priority 2012, published 2016).
# Tests used:
# [1] = system: stable HCV 1b RLuc replicon cells (genotype 1b Con1 replicon); assay: HCV genotype 1b RLuc replicon reporter assay; assay type: cell-based; settings: Hepatitis C virus; stable genotype 1b Con1 RLuc replicon cells, 72 hours
# Method in brief: (§1)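 Chimeric replicons for 3a and 4a use a Pi-RLuc reporter and were transiently transfected into Huh-Lunet cells; the 2b chimera (RLuc-Neo) was likewise transient in Huh-Lunet; 1b cells are stable. Cells were exposed to 3-fold serial compound dilutions for 72 h, then lysed. EC50s came from non-linear regression of Renilla luciferase signal.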
# [2] = system: stable HCV 1a RLuc replicon cells (genotype 1a H77 replicon); assay: HCV genotype 1a RLuc replicon reporter assay; assay type: cell-based; settings: Hepatitis C virus; stable genotype 1a H77 RLuc replicon cells, 72 hours
# [3] = system: stable HCV 2a JFH-1 Rluc replicon cells (L31 present in NS5A); assay: HCV genotype 2a JFH-1 RLuc replicon reporter assay; assay type: cell-based; settings: Hepatitis C virus, 72 h, read-out: 2a JFH (nM)
# [4] = system: NS5A chimeric genotype 2a JFH-1 replicon with genotype 2a J6 strain NS5A gene (M31); assay: HCV genotype 2a J6 NS5A chimeric replicon assay, transient (t); assay type: cell-based; settings: Hepatitis C virus, 72 h, read-out: 2a J6 (t) (nM)
# [5] = system: NS5A chimeric genotype 2a JFH-1 replicon with genotype 2b MD2b-1 strain NS5A gene (M31); assay: HCV genotype 2b NS5A chimeric replicon assay, transient (t); assay type: cell-based; settings: Hepatitis C virus, 72 h, read-out: 2b (t) (nM)
# Method: (§2) Evaluation of cell-based anti-HCV activity: Antiviral potency (EC50) was determined using a Renilla luciferase (RLuc)-based HCV replicon reporter assay. To perform the assay for genotype 1 and 2a JFH-1, stable HCV 1a RLuc replicon cells (harboring a dicistronic genotype 1a H77 replicon that encodes a RLuc reporter), stable HCV lb RLuc replicon cells (harboring a dicistronic genotype 1b Conl replicon that encodes a RLuc reporter), or stable HCV 2a JFH-1 Rluc replicon cells (harboring a dicistronic genotype 2a JFH-1 replicon that encodes a RLuc reporter; with L31 present in NS5A) were dispensed into 384-well plates for EC50 assays. To perform the assay for genotype 2a (with M31 present in NS5A) or 2b, NS5A chimeric genotype 2a JFH-1 replicons that encodes a RLuc-Neo reporter and either genotype 2a J6 strain NS5A gene or genotype 2b MD2b-1 strain NS5A gene (both with M31 present) respectively, were either transiently transfected (t) into Huh-Lunet cells or were established as stably replicating replicon cells (s) is provided. Either cells were dispensed into 384-well plates for EC50 assays. To perform the assay for genotype 3 and 4, NS5A chimeric genotype 1b Conl replicons that encodes a Pi-RLuc reporter and either genotype 3a S52 strain NS5A gene or genotype 4a ED43 strain NS5A gene respectively, were transiently transfected (t) into Huh-Lunet cells, which were subsequently dispensed into 384-well plates. Compounds were dissolved in DMSO at a concentration of 10 mM and diluted in DMSO either manually or using an automated pipeting instrument. Serially 3-fold diluted compounds were either manually mixed with cell culture media and added to the seeded cells or directly added to the cells using an automated instrument. DMSO was used as a negative (solvent; no inhibition) control, and the protease inhibitor ITMN-191 was included at a concentration >100×EC50 as a positive control. 72 hours later, cells were lysed and Renilla luciferase activity quantified as recommended by the manufacturer (Promega-Madison, Wis.). Non-linear regression was performed to calculate EC50 values.
# [6] = system: NS5A chimeric genotype 1b Con1 replicon with genotype 3a S52 strain NS5A gene; assay: HCV genotype 3a NS5A chimeric replicon assay; assay type: cell-based; settings: Hepatitis C virus, 72 h, read-out: 3a (nM)
# Method in brief: as §1
# [7] = system: NS5A chimeric genotype 1b Con1 replicon with genotype 4a ED43 strain NS5A gene; assay: HCV genotype 4a NS5A chimeric replicon assay; assay type: cell-based; settings: Hepatitis C virus, 72 h, read-out: 4a (s) (nM)
# [8] = system: L31V/Y93H in genotype 1b NS5A replicon; assay: Resistance mutant replicon assay, genotype 1b NS5A L31V/Y93H; assay type: cell-based, HCV; settings: Hepatitis C virus, read-out: 1b L31V/Y93H (nM)
# Method: as §2
# (§3) To determine the antiviral potency (EC50) against resistance mutants, resistance mutations, including M28T, Q30R, Q30H, Q30E, L31M, Y93C, Y93H, and Y93N in genotype 1a NS5A, Y93H and L31V/Y93H in genotype 1b NS5A, and Y93H for in genotype 3a NS5A, were introduced individually into either 1a Pi-Rluc or 1b Pi-Rluc replicons by site directed mutagenesis. Replicon RNA of each resistant mutant was transiently transfected into Huh-7-derived cured-51 cells and antiviral potency was determined on these transfected cells as described above.
# [9] = system: Q30E in genotype 1a NS5A replicon; assay: Resistance mutant replicon assay, genotype 1a NS5A Q30E; assay type: cell-based, HCV; settings: Hepatitis C virus, read-out: 1a Q30E (nM)
# Method: as §2, §3
# [10] = system: Y93H in genotype 1a NS5A replicon; assay: Resistance mutant replicon assay, genotype 1a NS5A Y93H; assay type: cell-based, HCV; settings: Hepatitis C virus, read-out: 1a Y93H (nM)
# Method in brief: (§4)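 Renilla luciferase signal after 72 h compound exposure gave EC50 via non-linear regression. Cells were Huh-7-derived cured-51 transiently transfected with replicon RNA carrying the NS5A mutation introduced by site-directed mutagenesis into 1a or 1b Pi-RLuc replicons.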
# [11] = system: Y93N in genotype 1a NS5A replicon; assay: Resistance mutant replicon assay, genotype 1a NS5A Y93N; assay type: cell-based, HCV; settings: Hepatitis C virus, read-out: 1a Y93N (nM)
# Method in brief: as §4
# [12] = system: Y93H in genotype 3a NS5A replicon; assay: Resistance mutant replicon assay, genotype 3a NS5A Y93H; assay type: cell-based, HCV; settings: Hepatitis C virus, read-out: 3a Y93H (nM)
# Method in brief: as §4
# [13] = IV and PO single dose pharmacokinetic studies in SD rats; assay type: in vivo; settings: Sprague-Dawley, rat, plasma, male SD rats, IV infusion 1 mg/kg, oral gavage 2 mg/kg, read-out: Rat % F
# Method: IV and PO Single Dose Pharmacokinetic Studies in SD Rats: The pharmacokinetics of selected compounds was characterized in male Sprague-Dawley (SD) rats (250-300 g). In this study, two groups of naïve purebred SD rats (N=3 per group, fasted over night) received the selected compound either as an intravenous (IV) infusion (1 mg/kg over 30 minutes) via the jugular vein or by oral gavage (2 mg/kg). The intravenous (IV) dosing vehicle was 5% ethanol, 35% polyethylene glycol 400 (PEG 400) and 60% water pH 2.0. The oral dosing vehicle was 5% ethanol, 55% PEG 400 and 40% citrate buffer pH 2.2.
# Serial blood samples (approximately 0.3 mL each) were collected from jugular vein or other suitable vein at specified time points. For the IV infusion group, the blood samples were collected predose and at 0.25, 0.48, 0.58, 0.75, 1.5, 3, 6, 8, 12 and 24 hours after the start of infusion. For the oral group, the blood samples were collected predose and at 0.25, 0.50, 1, 2, 4, 6, 8, 12 and 24 hours after dosing. The blood samples were collected into Vacutainer™ tubes containing EDTA-K3 as the anti-coagulant and were centrifuged at approximately 4° C. to obtain plasma. The plasma samples were stored at −20° C. until analysis by LC/MS/MS.
# A bioanalytical method utilizing high performance liquid chromatography coupled to tandem mass spectrometry (LC/MS/MS) was developed for analysis of the selected compound in rat plasma. Detection was performed using selected reaction monitoring (SRM); Ions representing the precursor (M+H)^+ species was selected in quadrupole 1 (Q1) and collided with argon gas in the collision cell (Q2) to generate specific product ion, which was subsequently monitored by quadrupole 3 (Q3). Standard curve and quality control samples were prepared in male rat plasma and processed in the same way as the test samples to generate quantitative data.
# Pharmacokinetic parameters were generated using non-compartmental pharmacokinetic analysis (Phoenix WinNonlin, version 6.3). Values below the lower limit of quantification (LLOQ) were assigned a value of zero if predose and treated as missing thereafter. Area under the curve (AUC) was calculated using the linear trapezoidal rule. The oral bioavailability (% F) was determined by comparison of the area under the curve (AUC) of the compound and/or a metabolite generated in plasma following oral administration to that generated following intravenous administration.
# [14] = system: Q30R in genotype 1a NS5A replicon; assay: Resistance mutant replicon assay, genotype 1a NS5A Q30R; assay type: cell-based, HCV; settings: Hepatitis C virus, read-out: 1a Q30R (nM)
# Method: as §2, §3
# [15] = system: NS5A chimeric genotype 2a JFH-1 replicon with genotype 2b MD2b-1 strain NS5A gene (M31); assay: HCV genotype 2b NS5A chimeric replicon assay, stable (s); assay type: cell-based; settings: Hepatitis C virus, 72 h, read-out: 2b (s) (nM)
Structure (SMILES),EC50 [1] [nM],EC50 [2] [nM],EC50 [3] [nM],EC50 [4] [nM],EC50 [5] [nM],EC50 [6] [nM],EC50 [7] [nM],EC50 [8] [nM],EC50 [9] [nM],EC50 [10] [nM],EC50 [11] [nM],EC50 [12] [nM],bioavailability [13] [%],EC50 [14] [nM],EC50 [15] [nM]
"CC[C@H]1CC[C@@H](c2nc3ccc4cc5c(cc4c3[nH]2)OCc2cc(-c3cnc([C@@H]4CC[C@H](C)N4C(=O)[C@@H](NC(=O)OC)C(C)C)[nH]3)ccc2-5)N1C(=O)[C@@H](NC(=O)OC)C1C[C@@H](C)O[C@H](C)C1 (stereo partly drawn) [Example AC, Methyl {(1S)-1-[(2R,6R)-2,6-dimethyltetrahydro-2H-pyran-4-yl]-2-[(2S,5S)-2-ethyl-5-(9-{2-[(2S,5S)-1-{(2S)-2-[(methoxycarbonyl)amino]-3-methylbutanoyl}-5-methylpyrrolidin-2-yl]-1H-imidazol-5-yl}-1,11-dihydroisochromeno[4′,3′:6,7]naphtho[1,2-d]imidazol-2-yl)pyrrolidin-1-yl]-2-oxoethyl}carbamate]",0.03,0.025,0.016,0.003,0.02,0.019,0.005,1.33,0.312,0.832,1.63,14.5,,,
"CC[C@H](C)[C@H](NC(=O)OC)C(=O)N1[C@H](c2ncc(-c3ccc4c(c3)COc3cc5c(ccc6nc([C@@H]7CC[C@H](C)N7C(=O)[C@@H](NC(=O)OC)C7CCOCC7)[nH]c65)cc3-4)[nH]2)C[C@@H]2CCC[C@@H]21 [Comp 9, reference compound]",0.034,0.028,,,,,40.9,,,3.5,10.6,40.9,0.571,0.26,
"COC(=O)N[C@H](C(=O)N1[C@@H](C)CC[C@H]1c1ncc(-c2ccc3c(c2)COc2cc4c(ccc5nc([C@@H]6CC[C@H](C)N6C(=O)[C@@H](NC(=O)OC)C6CCOCC6)[nH]c54)cc2-3)[nH]1)C1CCOCC1 [Comp 6, reference compound]",0.051,0.024,0.012,0.012,0.092,0.075,0.014,,0.101,0.442,,0.252,,0.042,0.038
"COC[C@H]1C[C@@H](c2ncc(-c3ccc4c(c3)COc3cc5c(ccc6nc([C@@H]7CC[C@H](C)N7C(=O)[C@@H](NC(=O)OC)C(C)C)[nH]c65)cc3-4)[nH]2)N(C(=O)[C@@H](NC(=O)OC)C2C[C@@H](C)O[C@H](C)C2)C1 (stereo partly drawn) [Example AB, Methyl {(2S)-1-[(2S,5S)-2-(9-{2-[(2S,4S)-1-{(2S)-2-[(2R,6R)-2,6-dimethyltetrahydro-2H-pyran-4-yl]-2-[(methoxycarbonyl)amino]acetyl}-4-(methoxymethyl)pyrrolidin-2-yl]-1H-imidazol-5-yl}-1,11-dihydroisochromeno[4′,3′:6,7]naphtho[1,2-d]imidazol-2-yl)-5-methylpyrrolidin-1-yl]-3-methyl-1-oxobutan-2-yl}carbamate]",0.046,0.026,0.011,0.028,0.024,0.025,0.006,0.668,0.082,0.163,0.418,8.77,,,
"CC[C@H]1C[C@@H](c2nc3ccc4cc5c(cc4c3[nH]2)OCc2cc(-c3cnc([C@@H]4CC[C@H](C)N4C(=O)[C@@H](NC(=O)OC)C(C)C)[nH]3)ccc2-5)N(C(=O)[C@@H](NC(=O)OC)C2CCOCC2)C1 [Comp 1, reference compound]",0.027,0.018,,,,,,0.971,0.319,,2.05,8.07,9.9,,
"COC(=O)N[C@H](C(=O)N1[C@@H](C)CC[C@H]1c1ncc(-c2ccc3c(c2)COc2cc4c(ccc5nc([C@@H]6C[C@@H]7CCC[C@@H]7N6C(=O)[C@@H](NC(=O)OC)C6CCOCC6)[nH]c54)cc2-3)[nH]1)C(C)C [Comp 10, reference compound]",0.024,0.015,,0.024,,,21.8,0.024,0.716,,3.74,21.8,,0.123,
